Test results from patent US20230285383A1, “TREATMENT OF SKIN DISEASES” (Ichilov Tech Ltd., priority 2020, published 2023).

Tests used:
SAMD9 [1] = experiment: SAMD9 expression by qRT-PCR in HeLa cells; format: cell-based, human
Protocol: (§1) HeLa cells were cultured in DMEM 4.5 g/l glucose medium containing 10% FCS, 1% L-glutamine and 1% penicillin and streptomycin (Biological Industries) and grown at 37° C. and 5% CO2.
(§2) Of note, when cells were incubated with CPT and CPT-11, they were grown in the appropriate medium with 0.1% FCS only.
(§3) RNA was extracted from cell cultures using an RNA extraction kit (Roche Diagnostics, Mahheim, Germany). cDNA was synthesized from 500 ng of total RNA using the Verso cDNA kit (Thermo Fisher Scientific, Waltham, Mass., USA) or qScript kit (Quanta Biosciences, Gaithersburg, Md., USA). cDNA PCR amplification was carried out using the Fast SYBR Green Master Mix in a StepOnePlus™ Real-Time PCR System (Applied Biosystems, Foster City, Calif., USA) with gene-specific intron-crossing oligonucleotide pairs listed in Table 1 (below). For quantification, standard curves were obtained using serially diluted cDNA amplified in the same qRT-PCR run. The melting temperature (Tm) of the amplified products was measured to confirm the specificity of the reaction conditions. […] Each sample was analyzed in triplicate. mRNA expression level for target gene was normalized to GAPDH. The results are based the amount of target, normalized to an endogenous reference (IACTB) and relative to a calibrator, as calculated by 2-ΔΔCT. […] The expression levels of target genes were expressed as mRNA relative units. […]

EGR1 = EGR1 expression by qRT-PCR in Hela cells; format: cell-based, human
Protocol: as §1, §2, §3

human psoriatic skin = experiment: Chimeric mice carrying human psoriatic skin; format: in vivo, SCID mice; details: i.p., 10 days; CPT 3 mg/kg five times a week; CPT-11 30 or 50 mg/kg three times a week
From the text: (§4) Chimeric mice carrying human psoriatic skin were generated using SCID mice, 2-3 months of age. Animals were maintained in a pathogen-free animal facility. A psoriasis-like phenotype was induced in normal human skin grafted onto the mice by intradermal injection of natural killer/T cells derived from psoriatic patients as previously described [Gilhar A et al. J Invest Dermatol (2011) 131: 118-124].
(§5) Formaldehyde-fixed 5-μm paraffin-embedded sections from skin biopsies were deparaffinized and treated with 3% H2O2 in methanol for 15 minutes at room temperature, warmed in a microwave oven in citrate buffer in a pressure cooker for 25 minutes, and stained with a monoclonal anti-Ki67 antibody (Thermo Scientific) for 1 hour at room temperature. Following 3 washings (10 minutes each) with phosphate-buffered saline (PBS), the antibodies were imaged using the ABC technique (Zymed Laboratories, South San Francisco, Calif.) and the slides were counterstained with hematoxylin.
(§6) Epidermal thickness was defined as the distance between the granular layer and the basement membrane and was measured at 10 randomly selected locations for each biopsy using NIS-Elements BR 3.2 software (Nikon, NY USA). An image was taken and was manually measured in the software by selecting an upper and lower border, as defined above. The distance was measured in microns.
To assess the potential therapeutic role of the compounds of some embodiments of the invention, the two compounds were administered systemically (i.p) to chimeric mice carrying human psoriatic skin.
as §4, with “In short,” for “Chimeric mice carrying human psoriatic skin were generated using”, “age,” for “age. Animals”
Two weeks after natural killer/T-cell injection (6 weeks after human skin grafting), mice were injected i.p. five times a week. Five groups of mice were treated as follows: one group of mice was injected five times a week with the vehicle (10% DMSO in […] was used as a vehicle control); a second group of mice was injected five times a week CPT (3 mg/kg); a third group of mice was injected three times a week CPT-11 (50 mg/kg); a fourth group of mice was injected three times a week CPT-11 (30 mg/kg); and a fifth group of mice, was treated with dexamethasone (DEX) cream applied 5 times a week on the graft, as positive control (DEX was expected to attenuate inflammation in this model). Each group included six mice, and the treatment was performed for a total of 10 days. The grafts were harvested from the five groups of mice, paraffin-embedded, stained for hematoxylin and eosin (H&E), analyzed and scored for the average improvement of the clinical and histological psoriasiform phenotype.

SAMD9 [2] = experiment: SAMD9 expression by qRT-PCR in TERC-transformed fibroblasts; format: cell-based, human; details: 5 μM, 24 hours, relative to DMSO
Protocol: TERC-transformed fibroblasts were transformed with a pBABE-H2AGFP construct containing the human telomerase gene were cultured High Glucose DMEM, 10% FCS, L-glutamine and Pen-Strep (all cell culture regents from Biological Industries, Israel). Medium was changed every 2-3 days. Cells were used at passage 2-3.
as §2
as §3, with “GAPDH.” for “GAPDH. The results are based the amount of target, normalized to an endogenous reference (IACTB) and relative to a calibrator, as calculated by 2-ΔΔCT.”

SAMD9 [3] = experiment: SAMD9 expression by qRT-PCR in primary fibroblasts; format: cell-based, human
Protocol: Primary fibroblasts were isolated from human adult skin and were grown in High Glucose DMEM, 10% Fetal Bovine Serum, L-glutamine and Pen-Strep. Medium was changed every 2-3 days. Cells were used at passage 2-3.
as §2
RNA was extracted from cell cultures using an RNA extraction kit (Roche Diagnostics, Mahheim, Germany). cDNA was synthesized from 500 ng of total RNA using the Verso cDNA kit (Thermo Fisher Scientific, Waltham, Mass., USA) or qScript kit (Quanta Biosciences, Gaithersburg, Md., USA). cDNA PCR amplification was carried out using the Fast SYBR Green Master Mix in a StepOnePlus™ Real-Time PCR System (Applied Biosystems, Foster City, Calif., USA) with gene-specific intron-crossing oligonucleotide pairs listed in Table 1 (below). For quantification, standard curves were obtained using serially diluted cDNA amplified in the same qRT-PCR run. The melting temperature (Tm) of the amplified products was measured to confirm the specificity of the reaction conditions. […] Each sample was analyzed in triplicate. mRNA expression level for target gene was normalized to GAPDH. The results are based the amount of target, normalized to an endogenous reference (IACTB) and relative to a calibrator, as calculated by 2-ΔΔCT. […]
SAMD9 expression was measured via qRT-PCR, in triplicates. […]

[4] = tested on: imiquimod-induced psoriasiform dermatitis; experiment: Imiquimod-induced psoriasiform dermatitis in mice; format: in vivo, Balb/c mice; details: 7.5 mg/Kg i.p., biopsies at day 6, vs vehicle
Protocol: Balb/c mice (Harlan Laboratories Ltd, Jerusalem, Israel), 9 weeks of age, were maintained in a pathogen-free animal facility. Animal care and research protocols had been approved by the institutional committee for animal use. Imiquimod 5% (Perrigo, Israel) was topically applied to the mice on their upper backs.
as §5
as §6, with “microns. […]” for “microns.”

HeLa cells = experiment: RNA sequence analysis of HeLa cells treated with CPT; format: cell-based, human; details: 10 μM, 48 hours
Protocol: FIG. 10A presents RNA-seq analysis of HeLa cells treated with CPT. HeLa cells were treated with 10 μM CPT or DMSO for 48 hours (three independent experiments). Total RNA was extracted and sent to RNA-seq. Volcano plot represents the number of genes that were differentially expressed. […] P-value for enrichment for genes belongs to a known psoriasis related pathogenic pathways (taken from IPA database) was calculated using hypergeometric distribution (using a background of 24190 genes).
HeLa cells were treated with 10 μM CPT or DMSO for 48 hours (three independent experiments). Total RNA was extracted and sent to RNA-sequencing.
The obtained data is presented in FIGS. 10A-B. FIG. 10A presents a volcano plot that show the number of statistically significant differential gene (DE) as response to CPT treatment. […] In addition, calculation of p-value for enrichment for genes belongs to a known psoriasis related pathogenic pathways (taken from IPA database) using hypergeometric distribution (using a background of 24190 genes). The table in FIG. 10B summarizes the number of genes in each group, the number of differentially expressed genes, the overlap, and the adjusted p-value (after correcting for multiple testing).

[5] = Hela cells, 1-10 μM for 48 hours, or 10 μM for 48 and 72 hours

In the case of `CCc1c2c(nc3ccc(OC(=O)N4CCC(N5CCCCC5)CC4)cc13)-c1cc3c(c(=O)n1C2)COC(=O)[C@]3(O)CC` [CPT-11, Irinotecan], the SAMD9 expression (SAMD9 [1]; [5]) is reported as “substantial induction of SAMD9 expression”, the EGR1 expression (EGR1; [5]) is reported as “substantial down-regulation of EGR1” and the “clinical and histological psoriasiform phenotype” value (human psoriatic skin) is reported as “significant clinical and histological attenuation of the psoriasiform phenotype”. The epidermal thickness (human psoriatic skin) was “significant decrease”, the inflammation index (human psoriatic skin) was “significant decrease” and the “keratinocyte proliferation (Ki67)” value (human psoriatic skin) was “significant decrease”.

For `CC[C@@]1(O)C(=O)OCc2c1cc1n(c2=O)Cc2cc3ccccc3nc2-1` [CPT, Camptothecin], the SAMD9 expression (SAMD9 [1]; HeLa cells, 5 μM, 24 hours, relative to DMSO) was “significant induction of SAMD9 expression”, the SAMD9 expression (SAMD9 [2]) was “significant induction of SAMD9 expression” and the “SAMD9 expression, dose dependence” value (SAMD9 [3]; 1 μM, 2 μM, 5 μM and 10 μM) was “up-regulate SAMD9 expression in a dose dependent manner”. For the same compound, the SAMD9 expression (SAMD9 [3]; 5 μM, 24 hours, relative to DMSO) was “significant induction of SAMD9 expression”, the EGR1 expression (EGR1; 10 μM, 24, 48 and 72 hours, result sentence prints primary fibroblast cells, method Hela cells) was “significantly down-regulated EGR1 expression” and the epidermal thickness [4] was “decrease in epidermal thickness”. For the same compound, the “index of proliferation (Ki67)” value [4] was “decrease”, the “clinical and histological psoriasiform phenotype” value (human psoriatic skin) was “significant clinical and histological attenuation of the psoriasiform phenotype” and the epidermal thickness (human psoriatic skin) was “significant decrease”. For the same compound, the inflammation index (human psoriatic skin) was “significant decrease”, the “keratinocyte proliferation (Ki67)” value (human psoriatic skin) was “significant decrease” and the “expression of genes of psoriasis related pathways” value (HeLa cells; enrichment by hypergeometric distribution) was “significant turnover in expression of many genes belongs to psoriasis related pathways”. The “number of genes downregulated” value (HeLa cells; vs DMSO, FDR<0.01) was 1192 and the “number of genes upregulated” value (HeLa cells; vs DMSO, FDR<0.01) was 1664.
